Results published in US20220313753A1, “BIFIDOBACTERIUM BIFIDUM BACTERIAL STRAIN, THE COMPOSITIONS THEREOF AND RELATED USES” (priority 2019, published 2022).
Read-outs that look alike come from different tables or passages of the source.

Legend:
[1] = system: B. bifidum MIMBb23sg DSM 32708; experiment: Antibiotic MIC by microdilution analysis (ISO, 2010); assay type: cell-based, Bifidobacterium bifidum; details: for MIC: Bifidobacterium bifidum
[2] = system: bifidobacteria; details: limit values provided for bifidobacteria (EFSA, 2012); cited from earlier work
[3] = DSM32708, microdilution analysis, ISO 2010, read-out: MIC of MIMBb23sg

| Molecule | MIC [1, 3] [µg/mL] | EFSA limit values [2] [µg/mL] | MIC ([1]; DSM32708, read-out: MIC of MIMBb23sg) [µg/mL] | MIC of MIMBb23sg ([1]; microdilution analysis, ISO 2010) [µg/mL] |
| --- | --- | --- | --- | --- |
| CC1(C)S[C@@H]2[C@H](NC(=O)[C@H](N)c3ccccc3)C(=O)N2[C@H]1C(=O)O [ampicillin] | 0.25 | 2 |  |  |
| O=C(N[C@H](CO)[C@H](O)c1ccc([N+](=O)[O-])cc1)C(Cl)Cl [chloramphenicol] | 2 | 4 |  |  |
| CCC[C@@H]1C[C@@H](C(=O)N[C@@H]([C@H]2O[C@H](SC)[C@H](O)[C@@H](O)[C@H]2O)[C@H](C)Cl)N(C)C1 [clindamycin] | 0.25 |  |  |  |
| CC[C@H]1OC(=O)[C@H](C)[C@@H](O[C@H]2C[C@@](C)(OC)[C@@H](O)[C@H](C)O2)[C@H](C)[C@@H](O[C@@H]2O[C@H](C)C[C@H](N(C)C)[C@H]2O)[C@](C)(O)C[C@@H](C)C(=O)[C@H](C)[C@@H](O)[C@]1(C)O [erythromycin] | 0.25 | 1 |  |  |
| NC[C@H]1O[C@H](O[C@H]2[C@H](O)[C@@H](O[C@H]3O[C@H](CO)[C@@H](O)[C@H](N)[C@H]3O)[C@H](N)C[C@@H]2N)[C@H](O)[C@@H](O)[C@@H]1O [kanamycin] | 128 |  |  |  |
| [H]/N=C(/N)N[C@H]1[C@H](O)[C@@H](O)[C@H](O[C@@H]2O[C@@H](C)[C@](O)(C=O)[C@H]2O[C@@H]2O[C@@H](CO)[C@H](O)[C@@H](O)[C@@H]2NC)[C@@H](N/C(N)=N\[H])[C@@H]1O [streptomycin] | 128 | 128 |  |  |
| CN(C)[C@@H]1C(O)=C(C(N)=O)C(=O)[C@@]2(O)C(O)=C3C(=O)c4c(O)cccc4[C@@](C)(O)[C@H]3C[C@@H]12 [tetracycline] | 1 |  |  |  |
| CN[C@H](CC(C)C)C(=O)N[C@H]1C(=O)N[C@@H](CC(N)=O)C(=O)N[C@H]2C(=O)N[C@H]3C(=O)N[C@H](C(=O)N[C@H](C(=O)O)c4cc(O)cc(O)c4-c4cc3ccc4O)[C@H](O)c3ccc(c(Cl)c3)Oc3cc2cc(c3O[C@@H]2O[C@H](CO)[C@@H](O)[C@H](O)[C@H]2O[C@H]2C[C@](C)(N)[C@H](O)[C@H](C)O2)Oc2ccc(cc2Cl)[C@H]1O [vancomycin] |  | 2 | 0.5 |  |
| gentamicin |  | 64 |  | 32 |
